In ChEMBL document CHEMBL3739354, “Nitrofuranyl Methyl Piperazines as New Anti-TB Agents: Identification, Validation, Medicinal Chemistry, and PK Studies” (ACS Med Chem Lett, 2015):
≈ marks a conversion by molar mass, not a printed value.

What was measured:
[1] = tested on: Mycobacterium tuberculosis; test: microbe, parasite or virus in culture; settings: 168 h
[2] = tested on: Mycobacterium tuberculosis; test: microbe, parasite or virus in culture; settings: 168 h; remark: listed apart in the source

Compound	MIC90 [1]	MIC90 [2]
O=[N+]([O-])c1ccc(CN2CCN(c3ccc(F)cc3)CC2)o1	6.55 µM (≈ 2 µg/mL)	–
O=[N+]([O-])c1ccc(CN2CCN(c3ccc(Cl)cc3)CC2)o1	0.072 µM (≈ 0.0232 µg/mL)	0.029 µM (≈ 0.00933 µg/mL)
Cc1cccc(N2CCN(Cc3ccc([N+](=O)[O-])o3)CC2)c1C	25.3 µM (≈ 7.98 µg/mL)	–
O=[N+]([O-])c1ccc(CN2CCN(c3ccccc3)CC2)o1	13.9 µM (≈ 4 µg/mL)	–
O=[N+]([O-])c1ccc(CN2CCN(S(=O)(=O)c3ccccc3)CC2)o1	2.13 µM (≈ 0.748 µg/mL)	> 22.7 µM
COc1cccc(N2CCN(Cc3ccc([N+](=O)[O-])o3)CC2)c1	0.37 µM (≈ 0.117 µg/mL)	0.09 µM (≈ 0.0286 µg/mL)
O=[N+]([O-])c1ccc(CN2CCN(S(=O)(=O)c3ccc(F)cc3)CC2)o1	1.35 µM (≈ 0.499 µg/mL)	1 µM (≈ 0.369 µg/mL)
Cc1ccc(S(=O)(=O)N2CCN(Cc3ccc([N+](=O)[O-])o3)CC2)cc1	0.68 µM (≈ 0.248 µg/mL)	14.6 µM (≈ 5.33 µg/mL)
O=[N+]([O-])c1ccc(CN2CCN(c3cccc(Cl)c3)CC2)o1	0.37 µM (≈ 0.119 µg/mL)	–
O=[N+]([O-])c1ccc(CN2CCN(c3ccc(N4CCOCC4)cc3)CC2)o1	0.08 µM (≈ 0.0298 µg/mL)	0.08 µM (≈ 0.0298 µg/mL)
CC(C)(C)c1ccc(N2CCN(Cc3ccc([N+](=O)[O-])o3)CC2)cc1	1.32 µM (≈ 0.453 µg/mL)	> 25.2 µM
O=[N+]([O-])c1ccc(CN2CCN(c3ccccc3F)CC2)o1	13.1 µM (≈ 4 µg/mL)	–
O=[N+]([O-])c1ccc(CN2CCN(c3cccc(C(F)(F)F)c3)CC2)o1	5.63 µM (≈ 2 µg/mL)	–
O=[N+]([O-])c1ccc(S(=O)(=O)N2CCN(Cc3ccc([N+](=O)[O-])o3)CC2)cc1	0.63 µM (≈ 0.25 µg/mL)	4.19 µM (≈ 1.66 µg/mL)
N#Cc1cccc(N2CCN(Cc3ccc([N+](=O)[O-])o3)CC2)c1	0.19 µM (≈ 0.0593 µg/mL)	0.06 µM (≈ 0.0187 µg/mL)
CC(C)(C)OC(=O)N1CCN(Cc2ccc([N+](=O)[O-])o2)CC1	0.32 µM (≈ 0.0996 µg/mL)	0.12 µM (≈ 0.0374 µg/mL)
COc1c(N2CCNC(C)C2)c(F)cc2c(=O)c(C(=O)O)cn(C3CC3)c12 (stereo not given) [GATIFLOXACIN]	2.66 µM (≈ 0.999 µg/mL)	1.33 µM (≈ 0.499 µg/mL)
CO[C@H]1/C=C/O[C@@]2(C)Oc3c(C)c(O)c4c(O)c(c(/C=N/N5CCN(C)CC5)c(O)c4c3C2=O)NC(=O)/C(C)=C\C=C\[C@H](C)[C@H](O)[C@@H](C)[C@@H](O)[C@@H](C)[C@H](OC(C)=O)[C@@H]1C [RIFAMPIN]	311 µM (≈ 256 µg/mL)	156 µM (≈ 128 µg/mL)
